No end group written: not given here. *: point of attachment. FITC = O=C1OC2(c3ccc(O)cc3Oc3cc(O)ccc32)c2ccc(NC(=S)*)cc21
What was measured:
rat lung injury sites = assay: Lung injury repair after implantation of peptide-bound collagen sponge (Masson's staining); assay type: in vivo; conditions: 35 days after implantation, vs control groups, FIG. 7
Text: After a CBD-affinity peptide and control peptides were implanted into rat lung injury sites according to the above method, lung tissues were taken out 35 days later and subjected to pathological identification.

rat lung injury site = assay: Recruitment of endogenous MSCs to peptide-bound collagen sponge implanted into rat lung injury site (flow cytometry); assay type: in vivo; conditions: rat lung defect, 12 h, 24 h or 48 h after implantation, vs control groups; FIGS. 6A to 6F
Method: Rats weighing about 150 g were anesthetized, intubated and subjected to partial resection on middle lobes of right lungs in the case of positive pressure ventilation of ventilators, where lung tissues with a size of about 0.5 cm*0.5 cm*0.3 cm were resected, and the collagen sponges which had been uniformly added dropwise with the CBD-affinity peptide or the control peptides and incubated for 2 h at 37° C. in advance were implanted into rat lung defect sites, respectively. After the rats were sacrificed after 12 h, 24 h or 48 h, respectively, the implanted collagen sponges were completely separated and taken out. The collagen sponges were dissolved with a collagenase, and cells adsorbed on the collagen sponges in vivo were separated and collected. Through identification of expression of CD45, CD44, CD71 and CD90 on surfaces of the cells, proportions of the numbers of MSCs adsorbed on the collagen sponges at the implantation sites were analyzed. The proportions that the MSCs accounted for in the cells digested from the collagen sponges were detected by flow cytometry.

[1] = tested on: human bone marrow stromal cell line HS-5; assay: Binding recovery of phage to control HS-5 cells (elution and titration); assay type: cell-based; conditions: FIG. 2B
Method: (§1) An HY7 phage monoclone and an M13KE negative control phage were amplified with reference to the method in Example 1 and titrated. The HY7 phage monoclone and the M13KE negative control phage were added to well plates containing human MSCs with a confluence pre-cultured to about 80%, and an unrelated human bone marrow stromal cell line HS-5 was set as a control. The HY7 phage monoclone and the M13KE negative control phage were subjected to binding and elution according to a step of screening phages to obtain an eluent of the HY7 phage binding to the target protein and an eluent of the M13KE negative control phage binding to the target protein, respectively. The eluent of the HY7 phage binding to the target protein and the eluent of the M13KE negative control phage binding to the target protein were titrated according to a phage titration method. The binding of the HY7 phage monoclone to the target molecule and the binding of the M13KE negative control phage to the target molecule were compared. […] FIG. 2A is a schematic diagram illustrating the binding recovery of an HY7 phage monoclone and an M13KE negative control phage to human MSCs, and FIG. 2B is a schematic diagram illustrating the binding recovery of an HY7 phage monoclone and an M13KE negative control phage to HS-5 cells.

rat MSCs = assay: Binding of FITC-labeled peptide to rat MSCs by flow cytometry; assay type: cell-based; conditions: FITC-labeled peptides, vs M7, FIG. 4
Text: To evaluate the species specificity of the HY7 peptide and provide a basis for subsequent animal experiments, the binding of HY7 to rat MSCs was specifically verified. Rat bone marrow cells were acquired according to a conventional method and subjected to culture and identification, and rat MSCs were obtained. The binding of an FITC-HY7 peptide and an FITC-M7 peptide to the rat MSCs was detected according to the above flow cytometry detection method.

human MSCs = assay: Binding recovery of phage to human MSCs (elution and titration); assay type: cell-based; conditions: vs M13KE negative control phage, FIG. 2A
Method: as §1

Row | Substance | repair effect at the tissue site (rat lung injury sites) | MSCs adsorbed to the collagen sponge (proportion of MSCs in cells digested from sponge) (rat lung injury site) | binding to the control cells HS-5 (binding recovery) [1] | binding ability to the rat MSCs (rat MSCs) | binding to surfaces of the MSCs (binding recovery) (human MSCs)
1 | CBD-HY7: CBD (TKKTLRT) on the N-terminus of HY7 through a linker (GGGGS or GGG-K-FITC) (TKKTLRTGGGK(FITC)HGGVRLY) | better repair effect | can adsorb more MSCs to the collagen sponge in a short time | – | – | –
2 | HGGVRLY (Leptin receptor affinity peptide) [HY7] | – | – | does not bind | significantly stronger than that of M7 | can specifically binds to surfaces of the MSCs
